System: FKBP5 gene expression
Test: FKBP5 gene expression in whole blood of healthy subjects after GR agonist, with or without GRA
Type: in vivo, human
Conditions: GAPDH normalized
Procedure: FIG. 1: depicts a study scheme for examining the expression level of the gene FKBP5, which encodes the FKBP5 protein, in response to administration of a GR modulator. In this scheme, healthy subjects are administered a GR agonist, followed by co-administration of a GR agonist and a GR antagonist (GRA). Blood samples are obtained from 10 subjects before each dose and at various time points after each dose. FKBP5 expression levels are measured before dosing on each day, and at selected times after dosing on each day.
Blood samples are taken before each dose and at various time-points after each dose. The study scheme is depicted in FIG. 1. The expression level of the FKBP5 gene is measured in the pre-administration samples obtained before dosing on each day and in the post-administration samples obtained at various time points after dosing on each day. Raw expression level data in the samples are normalized against the expression level of the glyceraldehyde phosphate dehydrogenase (GAPDH) gene in each sample.

| SMILES | change in the fold change in FKBP5 expression (prednisone 25 mg with CORT125134 500 mg) | change in the fold change in FKBP5 expression (prednisone 25 mg with mifepristone 600 mg) |
| --- | --- | --- |
| Cn1cc(S(=O)(=O)N2CCC3=Cc4c(cnn4-c4ccc(F)cc4)C[C@]3(C(=O)c3cc(C(F)(F)F)ccn3)C2)cn1 [CORT125134] | significant decrease | – |
| CC#C[C@]1(O)CC[C@H]2[C@@H]3CCC4=CC(=O)CCC4=C3[C@@H](c3ccc(N(C)C)cc3)C[C@@]21C [mifepristone] | – | significant decrease |

— patent publication US11268145B2, “Methods for treating Cushing's syndrome” (priority 2015, dated 2022)
